# Measurements from PubChem BioAssay (NCI).
#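 Results reflect a 48-hour exposure of cells in 96-well plates to compound at five concentrations. GI50 marks 50% less growth. TGI: total growth inhibition.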
# Experiments:
# Assay in all cases: DTP human tumour cell line panel, 48 h
# UO-31 renal = test system: UO-31 renal
# UACC-257 melanoma = test system: UACC-257 melanoma
# SK-OV-3 ovarian = test system: SK-OV-3 ovarian
# OVCAR-8 ovarian = test system: OVCAR-8 ovarian
# SNB-19 CNS = test system: SNB-19 CNS
# 786-0 renal = test system: 786-0 renal
# TK-10 renal = test system: TK-10 renal
# RXF 393 renal = test system: RXF 393 renal
# RPMI-8226 leukemia = test system: RPMI-8226 leukemia
# NCI/ADR-RES ovarian = test system: NCI/ADR-RES ovarian
# SF-295 CNS = test system: SF-295 CNS
# NCI-H23 lung = test system: NCI-H23 lung
# IGROV1 ovarian = test system: IGROV1 ovarian
# SW-620 colon = test system: SW-620 colon
# A498 renal = test system: A498 renal
# HCT-116 colon = test system: HCT-116 colon
# HOP-62 NSCLC = test system: HOP-62 NSCLC
# PC-3 prostate = test system: PC-3 prostate
# SK-MEL-5 melanoma = test system: SK-MEL-5 melanoma
# CCRF-CEM leukemia = test system: CCRF-CEM leukemia
# LOX IMVI melanoma = test system: LOX IMVI melanoma
# SR leukemia = test system: SR leukemia
# T-47D breast = test system: T-47D breast
# OVCAR-3 ovarian = test system: OVCAR-3 ovarian
# HL-60(TB) leukemia = test system: HL-60(TB) leukemia
# SF-268 CNS = test system: SF-268 CNS
# NCI-H226 lung = test system: NCI-H226 lung
# SF-539 CNS = test system: SF-539 CNS
# HCT-15 colon = test system: HCT-15 colon
# HT29 colon = test system: HT29 colon
# KM12 colon = test system: KM12 colon
# MALME-3M melanoma = test system: MALME-3M melanoma
# HCC-2998 colon = test system: HCC-2998 colon
# OVCAR-4 ovarian = test system: OVCAR-4 ovarian
# CAKI-1 renal = test system: CAKI-1 renal
# MOLT-4 leukemia = test system: MOLT-4 leukemia
# SK-MEL-2 melanoma = test system: SK-MEL-2 melanoma
# MDA-MB-435 = test system: MDA-MB-435
# SK-MEL-28 melanoma = test system: SK-MEL-28 melanoma
# SN12C renal = test system: SN12C renal
# U251 CNS = test system: U251 CNS
# UACC-62 melanoma = test system: UACC-62 melanoma
# HS 578T breast = test system: HS 578T breast
# K-562 leukemia = test system: K-562 leukemia
# MDA-MB-231 breast = test system: MDA-MB-231 breast
# A549 NSCLC = test system: A549 NSCLC
# BT-549 breast = test system: BT-549 breast
# NCI-H522 lung = test system: NCI-H522 lung
# NCI-H460 lung = test system: NCI-H460 lung
# DU-145 prostate = test system: DU-145 prostate
# OVCAR-5 ovarian = test system: OVCAR-5 ovarian
# ACHN renal = test system: ACHN renal
# SNB-75 CNS = test system: SNB-75 CNS
# COLO 205 colon = test system: COLO 205 colon
# EKVX NSCLC = test system: EKVX NSCLC
# HOP-92 NSCLC = test system: HOP-92 NSCLC
# MCF7 breast = test system: MCF7 breast
smiles,measurement,setting,value
C/C(=N\Nc1ccc(Cl)cn1)c1ccccn1,GI50,UO-31 renal,34.4 nM
same,TGI,UO-31 renal,1860 nM
same,GI50,UACC-257 melanoma,117 nM
same,GI50,SK-OV-3 ovarian,98 nM
same,TGI,SK-OV-3 ovarian,26900 nM
same,GI50,OVCAR-8 ovarian,70.4 nM
same,TGI,OVCAR-8 ovarian,> 100000 nM
same,GI50,SNB-19 CNS,411 nM
same,TGI,SNB-19 CNS,> 100000 nM
same,GI50,786-0 renal,206 nM
same,TGI,786-0 renal,> 33900 nM
same,GI50,TK-10 renal,2060 nM
same,TGI,TK-10 renal,97700 nM
same,GI50,RXF 393 renal,188 nM
same,TGI,RXF 393 renal,24900 nM
same,GI50,RPMI-8226 leukemia,57.2 nM
same,TGI,RPMI-8226 leukemia,12300 nM
same,GI50,NCI/ADR-RES ovarian,37 nM
same,TGI,NCI/ADR-RES ovarian,> 31600 nM
same,GI50,SF-295 CNS,262 nM
same,TGI,SF-295 CNS,5180 nM
same,GI50,NCI-H23 lung,67.4 nM
same,TGI,NCI-H23 lung,> 100000 nM
same,GI50,IGROV1 ovarian,82.3 nM
same,TGI,IGROV1 ovarian,38100 nM
same,GI50,SW-620 colon,62.2 nM
same,TGI,SW-620 colon,> 100000 nM
same,GI50,A498 renal,174 nM
same,TGI,A498 renal,1050 nM
same,GI50,HCT-116 colon,20.1 nM
same,TGI,HCT-116 colon,> 33800 nM
same,GI50,HOP-62 NSCLC,167 nM
same,TGI,HOP-62 NSCLC,> 42100 nM
same,GI50,PC-3 prostate,46.4 nM
same,TGI,PC-3 prostate,> 100000 nM
same,GI50,SK-MEL-5 melanoma,343 nM
same,TGI,SK-MEL-5 melanoma,5480 nM
same,GI50,CCRF-CEM leukemia,27.3 nM
same,TGI,CCRF-CEM leukemia,> 100000 nM
same,GI50,LOX IMVI melanoma,113 nM
same,TGI,LOX IMVI melanoma,> 24200 nM
same,GI50,SR leukemia,55.6 nM
same,TGI,SR leukemia,> 40900 nM
same,GI50,T-47D breast,37.2 nM
same,TGI,T-47D breast,> 38800 nM
same,TGI,OVCAR-3 ovarian,14900 nM
same,GI50,HL-60(TB) leukemia,35.9 nM
same,TGI,HL-60(TB) leukemia,1080 nM
same,GI50,SF-268 CNS,213 nM
same,TGI,SF-268 CNS,> 73200 nM
same,GI50,NCI-H226 lung,93.9 nM
same,TGI,NCI-H226 lung,2650 nM
same,GI50,SF-539 CNS,229 nM
same,TGI,SF-539 CNS,3490 nM
same,GI50,HCT-15 colon,65.8 nM
same,TGI,HCT-15 colon,> 50400 nM
same,GI50,HT29 colon,< 41.9 nM
same,TGI,HT29 colon,> 59900 nM
same,GI50,KM12 colon,410 nM
same,TGI,KM12 colon,18100 nM
same,GI50,MALME-3M melanoma,111 nM
same,TGI,MALME-3M melanoma,44100 nM
same,GI50,HCC-2998 colon,554 nM
same,TGI,HCC-2998 colon,68200 nM
same,GI50,OVCAR-4 ovarian,48.5 nM
same,TGI,OVCAR-4 ovarian,> 59400 nM
same,GI50,CAKI-1 renal,45.2 nM
same,TGI,CAKI-1 renal,2640 nM
same,GI50,MOLT-4 leukemia,26 nM
same,TGI,MOLT-4 leukemia,> 42000 nM
same,GI50,SK-MEL-2 melanoma,720 nM
same,TGI,SK-MEL-2 melanoma,> 100000 nM
same,GI50,MDA-MB-435,382 nM
same,TGI,MDA-MB-435,> 100000 nM
same,GI50,SK-MEL-28 melanoma,250 nM
same,TGI,SK-MEL-28 melanoma,> 100000 nM
same,GI50,SN12C renal,134 nM
same,TGI,SN12C renal,> 100000 nM
same,GI50,U251 CNS,218 nM
same,TGI,U251 CNS,> 100000 nM
same,GI50,UACC-62 melanoma,172 nM
same,TGI,UACC-62 melanoma,> 100000 nM
same,GI50,HS 578T breast,616 nM
same,TGI,HS 578T breast,> 73800 nM
same,GI50,K-562 leukemia,29 nM
same,TGI,K-562 leukemia,> 100000 nM
same,GI50,MDA-MB-231 breast,65.2 nM
same,TGI,MDA-MB-231 breast,> 100000 nM
same,GI50,A549 NSCLC,364 nM
same,TGI,A549 NSCLC,> 100000 nM
same,GI50,BT-549 breast,362 nM
same,TGI,BT-549 breast,> 76000 nM
same,GI50,NCI-H522 lung,39 nM
same,TGI,NCI-H522 lung,9990 nM
same,GI50,NCI-H460 lung,268 nM
same,TGI,NCI-H460 lung,11200 nM
same,GI50,DU-145 prostate,161 nM
same,TGI,DU-145 prostate,> 100000 nM
same,GI50,OVCAR-5 ovarian,225 nM
same,TGI,OVCAR-5 ovarian,> 100000 nM
same,GI50,ACHN renal,42 nM
same,TGI,ACHN renal,27100 nM
same,GI50,SNB-75 CNS,208 nM
same,TGI,SNB-75 CNS,> 76200 nM
same,GI50,COLO 205 colon,22.7 nM
same,TGI,COLO 205 colon,36700 nM
same,GI50,EKVX NSCLC,51.6 nM
same,TGI,EKVX NSCLC,> 83700 nM
same,GI50,HOP-92 NSCLC,134 nM
same,TGI,HOP-92 NSCLC,33900 nM
same,GI50,MCF7 breast,98.9 nM
same,TGI,MCF7 breast,> 100000 nM
